Data from patent publication US20250092399A1, “GENE THERAPY TARGETING THE NEONATAL FORM OF NAV1.5 FOR TREATING CANCER” (Celex Oncology Innovations Limited, priority 2018, published 2025).
Values joined by “and” are separate entries in the source; they are usually repeats but may differ in a detail not shown here. Equal values may be shown once. Read-outs that look alike come from different tables or passages of the source.

What was measured:
nNav1.5 mRNA = experiment: Real-time RT-PCR of nNav1.5 mRNA levels in SW620 cells; format: cell-based, human; conditions: for decrease in nNav1.5 mRNA levels in comparison to c-siRNA: 40 nM siRNA, 90 h after transfection
Method: Steps for polymerase chain reactions (PCRs) were as described before (Fraser et al., 2005). Conventional PCRs were performed using HotStarTaq Plus technology (Qiagen Ltd, Manchester, UK) in a Primus PCR machine (MWG-Biotech, Eurofins Genomics, Ebersberg, Germany). Quantitative real-time PCRs were carried out utilising SYBR Green technology (Qiagen) and a DNA Engine Opticon 2 system (MJ Research, Bio-Rad Laboratories Ltd, Hamel Hempstead, UK). Duplicate reactions on each sample were carried out simultaneously for target and reference genes. Control PCRs were carried out routinely by including non-target (-RT) reactions and monitoring melting curves. The primer pairs used were as follows:
The mRNA levels were quantified using the comparative 2^−ΔΔC(t) method (Livak and Schmittgen, 2001).
(§1) Lipofectamine 2000 reagent (Invitrogen) was used as the transfection agent and the protocol was applied according to the manufacturer's instructions. […] Electrophysiological recordings of siRNA-treated cells were also performed in parallel at given time points and in random order. For these treatments, recordings were made from 19-37 cells from ≥4 different transfections with matching controls.

[1] = target: persistent current, INaP, of VGSC, especially Nav1.5 (Canis lupus familiaris, UniProt Q865W3); conditions: Antzelevitch et al., 2004; read-out: IC50 for block of hypoxia-induced persistent current INaP; cited from earlier work
SW620 cells [2] = experiment: Matrigel invasion assay; format: cell-based, human; conditions: for reduction in number of invaded cells compared to c-siRNA: 40 nM siRNA, invasion over 48 h
Method: For hypoxia, cells were maintained as above but in 1% O2 for up to 120 h in a dedicated incubator (Micro Galaxy, RS Biotech Laboratory Equipment Ltd, Irvine, UK).
as §1
Thus, (i) insert filters (with 8 μm pores) were coated with 50 µl of 0.21 mg/ml Matrigel (BD Biosciences, Bedford, MA, USA); (ii) the chemotactic gradient was 0.1-10% FBS; and (iii) the cells were serum-starved for 24 hours and (iv) 10^5 cells were seeded onto each filter. After 48 hours, the insert was swabbed and then stained with crystal violet. The invaded cells in 12 non-overlapping fields of view were counted under ×400 magnification. […] Each treatment condition was tested 5-8 times.

SW620 cells [3] = experiment: Cell viability (trypan blue exclusion) and proliferation (MTT); format: cell-based, human
Method: Cellular viability (toxicity) and proliferation were quantified as described previously (Fraser et al., 1999, 2003b; Grimes et al., 1995). Briefly, cells were seeded into 35 mm plates at 3.5×10^4/plate (for toxicity) or 24-well plates at 2× 10^4/well (for proliferation) and allowed to settle overnight. The cells were incubated under control conditions or treated with the drug, with a change of medium every 24 h. Cell viability was determined by trypan blue exclusion assay. Proliferation was determined by the colorimetric 3-(4,5-dimethylthiazol-2-yl)-2,5-diphenyltetrazolium bromide (MTT) assay. A ‘standard curve’ was constructed showing linearity over the experimental range. Each biological repeat (treatment and control) was performed in triplicate.

nNav1.5 protein = experiment: Western blot of nNav1.5 protein expression (NESO-pAb); format: cell-based, human
Method: Cells were washed with PBS containing 0.5 mM NaF, 0.1 mM Na3 VO4 (Sigma-Aldrich) and lysed in RIPA buffer (0.5M Tris-HCl, pH 7.4, 1.5M NaCl, 2.5% deoxycholic acid, 10% NP-40, 10 mM EDTA) (Merck-Millipore Ltd, Watford, UK) supplemented with an EDTA-free protease inhibitor cocktail (Roche Products Ltd, Welwyn Garden City, UK). Then, cells were vortexed for 30 mins at 4° C. The lysate was centrifuged (15,000 g) at 4° C. and supernatant collected for measurement of the protein concentration by a standard Bradford assay (Bio-Rad protein assay, Bio-Rad). After 15 minutes at 70° C. in SDS loading buffer (62.5 mM Tris-HCl, 20% glycerol, 2% SDS, 100 mM DTT, 0.0025% bromphenol blue, 10% B-mercaptoethanol; pH 6.8), 50 μg of protein per lane was separated by 7.5% SDS-polyacrylamide gel electrophoresis and electroblotted onto 0.45 μm nitrocellulose membrane (Thermo Scientific). Equal protein loading was controlled by Ponceau S staining (Sigma-Aldrich). Membranes were ‘blocked’ with 5% bovine serum albumin (BSA) in TBS+0.1% Tween-20 for 1 hour and probed for 20 hours with the following primary antibodies (diluted in TBS+0.1% Tween 20+1% BSA): i) NESO-pAb antibody for nNav1.5 (1 μl/ml); and (ii) anti-actinin antibody (1 μl/ml) as loading control (Sigma-Aldrich). […]

[4] = test system: VGSC currents (nNav1.5 / aNav1.5) in SW620 cells; experiment: Whole-cell patch-clamp recording of VGSC currents in siRNA-transfected SW620 cells; format: cell-based, human; conditions: for proportion of cells demonstrating VGSC currents / peak VGSC current density: SW620 cells after siRNA transfection; for peak VGSC current density: median (25%-75% interquartile range); for Activation V1/2 (half-activation voltage) / Activation k (activation slope factor) / Inactivation V1/2 (half-inactivation voltage) / Inactivation k (inactivation slope factor) / Tinactivation (inactivation time constant) / Tpeak (time to peak): SW620 cells, 40 nM siRNA, 96 h transfection, 24 h serum starvation, mean ± SEM
From the text: Details of the patch pipettes, solutions, and the whole-cell recording protocols were as described previously (e.g. Laniado et al., 1997; 2001; Fraser et al., 2003a; Grimes et al, 1995). In brief, patch pipettes (tip resistances, ˜5 M Ω) were filled with a solution designed to block the outward K^+ currents; the composition was as follows (in mM): NaCl 5, CsCl 145, MgCl2 2, CaCl2) 1, HEPES 10 and EGTA 11, adjusted to pH 7.4 with 1 M CsOH. The estimated intracellular free Ca^2+ concentration was ˜15 nM (Laniado et al., 2001). Whole-cell membrane currents were recorded from cells that appeared ‘isolated’ in culture, using an Axopatch 200B amplifier (Axon Instruments, CA, USA). Analogue signals were filtered at 10 kHz using a low-pass Bessel filter, and series resistance errors were compensated by >90%. Electrophysiological signals were sampled at 50 kHz and digitised using an interface (Digidata 1200). Data acquisition and analysis of whole-cell currents were performed using pClamp software (Axon Instruments). A holding potential of −100 mV was applied, unless indicated otherwise. Standard voltage-clamp protocols were used to study the electrophysiological properties of the VGSC currents. There was a noticeable decrease in current amplitude with time in culture, also apparent in immunocytochemistry (FIG. 7). All routine recordings were done 24 hours after (re) plating and 24 hours of serum starvation (to match the condition of the invasion assays).
Conductance-voltage relationships were determined using the equation:
[formula] • where G is the conductance; I the current amplitude; V the test pulse; and Vrev the theoretical Na^+ reversal potential. Normalized curves for voltage dependence of steady-state activation and inactivation were fitted to a Boltzmann function of the form:
[formula] • where Gmax is the maximal conductance; Vm is the membrane voltage; V1/2 is the voltage at which the current is half activated/inactivated, and k is the slope factor of voltage sensitivity. For the time course of recovery from inactivation, the data was plotted as a function of recovery time and fitted to the following single exponential equation:
[formula] • where I is normalized current, t is time, t is the time constant, A is the amplitude of the normalized current, and C is the asymptote. More details can be found in Onkal et al. (2008).
as §1

[5] = test system: Nav1.5 splice variant (neonatal and adult); conditions: cited from earlier work

Chain of persistent current, INaP, of VGSC, especially Nav1.5 (Q865W3 1-2013): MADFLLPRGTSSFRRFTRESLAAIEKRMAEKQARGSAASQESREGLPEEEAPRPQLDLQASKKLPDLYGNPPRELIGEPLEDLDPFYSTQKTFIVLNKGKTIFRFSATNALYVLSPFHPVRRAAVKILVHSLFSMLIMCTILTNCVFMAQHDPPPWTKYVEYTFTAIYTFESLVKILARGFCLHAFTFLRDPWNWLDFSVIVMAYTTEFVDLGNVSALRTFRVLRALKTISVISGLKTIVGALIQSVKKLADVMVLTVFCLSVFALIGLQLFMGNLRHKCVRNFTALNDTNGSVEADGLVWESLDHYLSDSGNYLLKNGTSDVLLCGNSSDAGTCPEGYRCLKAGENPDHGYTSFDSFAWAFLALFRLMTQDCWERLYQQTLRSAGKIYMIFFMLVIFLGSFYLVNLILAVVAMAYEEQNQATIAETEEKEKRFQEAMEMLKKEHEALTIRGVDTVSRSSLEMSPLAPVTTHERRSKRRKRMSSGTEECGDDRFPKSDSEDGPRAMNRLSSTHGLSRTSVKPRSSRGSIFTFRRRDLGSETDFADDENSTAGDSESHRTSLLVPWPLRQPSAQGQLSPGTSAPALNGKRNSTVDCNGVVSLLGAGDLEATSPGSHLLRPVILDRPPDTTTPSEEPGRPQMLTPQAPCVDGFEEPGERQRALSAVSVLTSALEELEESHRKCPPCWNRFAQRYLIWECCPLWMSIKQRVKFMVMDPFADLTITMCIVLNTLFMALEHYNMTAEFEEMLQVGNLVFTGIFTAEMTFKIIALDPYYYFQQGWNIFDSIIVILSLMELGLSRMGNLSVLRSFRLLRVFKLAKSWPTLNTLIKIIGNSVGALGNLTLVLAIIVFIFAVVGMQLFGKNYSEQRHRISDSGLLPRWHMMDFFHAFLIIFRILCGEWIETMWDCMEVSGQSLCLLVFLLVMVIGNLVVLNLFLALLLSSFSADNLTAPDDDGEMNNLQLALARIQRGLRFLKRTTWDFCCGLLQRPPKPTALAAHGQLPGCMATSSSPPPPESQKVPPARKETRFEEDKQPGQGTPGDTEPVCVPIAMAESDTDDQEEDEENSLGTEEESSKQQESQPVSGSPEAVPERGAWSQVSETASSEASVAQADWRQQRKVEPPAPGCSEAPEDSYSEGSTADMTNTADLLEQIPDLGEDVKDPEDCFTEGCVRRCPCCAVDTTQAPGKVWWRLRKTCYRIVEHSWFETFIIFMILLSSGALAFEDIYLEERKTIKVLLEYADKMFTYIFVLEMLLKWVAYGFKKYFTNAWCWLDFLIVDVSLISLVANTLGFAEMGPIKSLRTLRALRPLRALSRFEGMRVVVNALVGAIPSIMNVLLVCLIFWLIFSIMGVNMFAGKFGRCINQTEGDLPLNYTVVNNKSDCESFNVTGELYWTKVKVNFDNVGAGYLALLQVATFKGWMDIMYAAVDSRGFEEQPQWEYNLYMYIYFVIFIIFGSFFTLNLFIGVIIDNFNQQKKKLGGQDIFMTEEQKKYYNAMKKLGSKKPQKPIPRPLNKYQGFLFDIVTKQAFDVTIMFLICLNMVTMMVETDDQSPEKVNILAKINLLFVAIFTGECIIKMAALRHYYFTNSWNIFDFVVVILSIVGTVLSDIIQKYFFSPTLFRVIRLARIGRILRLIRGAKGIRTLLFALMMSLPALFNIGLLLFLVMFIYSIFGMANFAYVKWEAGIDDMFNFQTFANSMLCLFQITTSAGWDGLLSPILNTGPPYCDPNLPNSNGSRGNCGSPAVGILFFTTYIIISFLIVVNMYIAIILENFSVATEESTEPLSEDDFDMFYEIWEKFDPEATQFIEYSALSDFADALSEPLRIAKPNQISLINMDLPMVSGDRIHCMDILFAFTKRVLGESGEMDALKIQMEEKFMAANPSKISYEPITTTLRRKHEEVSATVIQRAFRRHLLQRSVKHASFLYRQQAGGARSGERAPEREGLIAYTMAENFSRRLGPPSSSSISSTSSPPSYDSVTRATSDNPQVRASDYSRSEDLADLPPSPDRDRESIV

COc1ccccc1OCC(O)CN1CCN(CC(=O)Nc2c(C)cccc2C)CC1 (stereo not drawn) [ranolazine]
effect on hypoxia-induced increase of nNav1.5 mRNA expression (nNav1.5 mRNA; 5 μM, hypoxia 1% O2 48 h, SW620 cells): blocked this increase | effect on nNav1.5 mRNA expression (nNav1.5 mRNA; 5 μM, normoxia, SW620 cells): Lack of effect | IC50 [1]: 5.9 µM | reduction in invasion cf. hypoxia control (SW620 cells [2]; 5 μM, hypoxia (1% O2, 72 h), SW620 cells): 37% | reduction in invasion (SW620 cells [2]; 5 μM, normoxia, SW620 cells): 9% | inhibition of invasion, dose dependence (SW620 cells [2]; 1-10 μM, hypoxia, control/c-siRNA-treated SW620 cells): dose-dependent manner with two-fold difference over 1-10 μM | effect on invasiveness in cells pre-treated with n3-siRNA (SW620 cells [2]; up to 10 μM, hypoxia, n3-siRNA pre-treated SW620 cells): no additional effect | effect on proliferation (SW620 cells [3]; up to 10 µM, normoxia or hypoxia (not shown)): not affected | effect on nNav1.5 protein expression (nNav1.5 protein; 5 μM, normoxia and hypoxia, SW620 cells): no effect

AGGUAGUGUAAUCGCCUUG (listed as RNA, chemistry not given here) [c-siRNA, non-targeting control siRNA supplied by Eurofins]
effect on invasiveness (SW620 cells [2]; SW620 cells, normoxia or hypoxia (1% O2, 72 h)): no effect

GUCUCAGCCUUACGCACCU (listed as RNA, chemistry not given here) [a-siRNA, siRNA targeting 'adult' Nav1.5 (aNav1.5)]
proportion of cells demonstrating VGSC currents [4]: 58% | peak VGSC current density [4]: 3.5 (0-7.5) pA/pF | Activation V1/2 (half-activation voltage) [4]: −28.1 ± 1.7 mV | Activation k (activation slope factor) [4]: 6.7 ± 0.6 mV | Inactivation V1/2 (half-inactivation voltage) [4]: −95.6 ± 2.1 mV | Inactivation k (inactivation slope factor) [4]: −6.7 ± 0.7 mV | Tinactivation (inactivation time constant) [4]: 1.35 ± 0.19 ms | Tpeak (time to peak) [4]: 0.90 ± 0.06 ms | reduction in number of invaded cells compared to c-siRNA (SW620 cells [2]; SW620 cells, normoxia): 17%

UAUCAUGGCGUAUGUAUCA [n2-siRNA]
proportion of cells demonstrating VGSC currents [4]: 33% | peak VGSC current density [4]: 0.0 (0-2.4) pA/pF | decrease in nNav1.5 mRNA levels in comparison to c-siRNA (nNav1.5 mRNA; SW620 cells): 85±10% | reduction in number of invaded cells compared to c-siRNA (SW620 cells [2]; SW620 cells, normoxia): 45%

CUAGGCAAUUUGUCGGCUC [n1-siRNA]
proportion of cells demonstrating VGSC currents [4]: 42% | peak VGSC current density [4]: 0.0 (0-3.1) pA/pF | decrease in nNav1.5 mRNA levels in comparison to c-siRNA (nNav1.5 mRNA; SW620 cells): 50±12% | reduction in number of invaded cells compared to c-siRNA (SW620 cells [2]; SW620 cells, normoxia): 64%

GAGUCCUGAGAGCUCUAAA [n3-siRNA]
proportion of cells demonstrating VGSC currents [4]: 51% | peak VGSC current density [4]: 1.0 (0-6.8) pA/pF | Activation V1/2 (half-activation voltage) [4]: −24.7 ± 2.0 mV | Activation k (activation slope factor) [4]: 6.1 ± 0.3 mV | Inactivation V1/2 (half-inactivation voltage) [4]: −86.5 ± 1.2 mV | Inactivation k (inactivation slope factor) [4]: −5.0 ± 0.4 mV | Tinactivation (inactivation time constant) [4]: 0.80 ± 0.10 ms | Tpeak (time to peak) [4]: 0.66 ± 0.04 ms | decrease in nNav1.5 mRNA levels in comparison to c-siRNA (nNav1.5 mRNA; SW620 cells): 32±10% | reduction in number of invaded cells compared to c-siRNA (SW620 cells [2]; SW620 cells, normoxia): 73% | hypoxia-induced increase in invasiveness (SW620 cells [2]; SW620 cells, hypoxia 1% O2 72 h, siRNA-treated): completely suppressed

NC1=N[C@H](O)[C@H]2[C@H]3O[C@]4(O)O[C@@H]([C@@H](O)[C@@]2(N1)[C@@H]4O)[C@]3(O)CO [TTX, Tetrodotoxin]
effect on hypoxia-induced increase of nNav1.5 mRNA expression (nNav1.5 mRNA): blocked this increase | effect on nNav1.5 mRNA expression (nNav1.5 mRNA): Lack of effect | block of currents generated by either Nav1.5 splice variant [5]: > 80% | effect of TTX on invasiveness (SW620 cells [2]): no effect | effect on invasiveness (SW620 cells [2]): no effect | reduction of invasiveness by TTX (SW620 cells [2]): 32% and 34% | reduction of invasiveness cf. hypoxia control (SW620 cells [2]): 45% | inhibition of invasiveness (SW620 cells [2]; 20 µM): 37% | effect on proliferation (SW620 cells [3]): not affected | effect on nNav1.5 protein expression (nNav1.5 protein): no effect
